Laboratory results taken from US20200253877A1, “GEMCABENE, PHARMACEUTICALLY ACCEPTABLE SALTS THEREOF, COMPOSITIONS THEREOF AND METHODS OF USE THEREFOR” (NEUROBO PHARMACEUTICALS, INC., priority 2018, published 2020).

Tests used:
[1] = Stability study of gemcabene calcium salt forms (XRPD form, HPLC/CAD purity); type: physicochemical
Protocol: The stability studies were carried out using storage conditions at a) 40° C. and 75% relative humidity (RH), b) at 80° C. and c) at ambient temperature (approximately 22° C.). After 7 days and 14 days, the samples were removed from the relevant storage conditions and initially analyzed by XRPD to identify any form changes. The samples were then analyzed by HPLC/CAD (high-performance liquid chromatography equipped with a charged aerosol detector) for purity, with all solid purity values given on a w/w % basis.

[2] = Aqueous solubility of gemcabene calcium salt forms over 24 hours (HPLC concentration, XRPD form); type: physicochemical; details: slurry in water, approximately 25° C.
Protocol: To each vial, approximately 3 mL to 4 mL water were added and the samples were mixed at ambient temperature (approximately 25° C.) for approximately 24 hours. […] From each vial, samples of the slurries were taken after 1, 4, and 24 hours, which were separated by centrifugation. The solids were separated by centrifugation and analyzed by XRPD for solid form and by HPLC for concentration.

CC(C)(CCCCOCCCCC(C)(C)C(=O)[O-])C(=O)[O-].[Ca+2] [amorphous gemcabene calcium salt]
change in form (XRPD) ([1]; 2-week study, 40° C./75% RH, 80° C. and ambient): No change in the form
purity (HPLC/CAD) compared to the starting form ([1]; after 2 weeks storage, all 3 storage conditions): drop in purity
change in polymorphic form during the test period (XRPD) ([2]; 24 hours): conversion to a new polymorph, gemcabene calcium salt hydrate Crystal Form 6
change in concentration (HPLC) during the experiment ([2]; sampled 1, 4, 24 hours): initial increase in concentration after 4 hours followed by a slight decrease in the concentration after 24 hours
